Reference: PMC7144554, “2-(Arylamino)-6-(trifluoromethyl)nicotinic Acid Derivatives: New HIV-1 RT Dual Inhibitors Active on Viral Replication” (Molecules, 2020)

Columns and labels:
[1] = molecular target: T1, HIV-1 RT-associated RNase H activity (wt RT) (Human immunodeficiency virus type 1 group M subtype B, UniProt P04585); test: HIV-1 DNA polymerase-independent RNase H activity, wt RT; type: biochemical; details: for IC50: RNase H IC50, wt RT; for RNase H IC50 / percentage in parenthesis in presence of the highest concentration of inhibitor tested (RNase H): wt RT
T1 construct: RT is a heterodimeric (p66/p51) multifunctional enzyme; made in house; host or cells: Escherichia coli strain M15
Protocol: p6HRT-prot vector was kindly provided by Dr. Stuart Le Grice Laboratory. Heterodimeric RT was expressed essentially as described. Briefly, Escherichia coli strain M15 containing the p6HRT-prot vector were grown up to an OD600 of 0.7 and induced with isopropyl β-D-1-thiogalactopyranoside (IPTG) 1.7 mM for 4 h. Cell pellets were resuspended in Lysis buffer (50 mM sodium phosphate pH 7.8, 0.5 mg/mL lysozyme), incubated on ice for 20 min, added 0.3 M final NaCl, sonicated and centrifuged at 30,000× g for 1 h. The supernatant was loaded into a Ni^2+-sepharose column pre-equilibrated with loading buffer (50 mM sodium phosphate pH 7.8, 0.3 M NaCl, 10% glycerol, 10 mM imidazole) and washed thoroughly with wash buffer (50 mM sodium phosphate pH 6.0, 0.3 M NaCl, 10% glycerol, 80 mM imidazole). RT was gradient-eluted with elute buffer (wash buffer with 0.5 M imidazole). Fractions were collected, protein purity was checked by SDS-PAGE and found to be higher than 90%. RT containing fractions were pooled and diluted 1:1 with dilute buffer (50 mM sodium phosphate pH 7.0, 10% glycerol) then loaded into a Hi-trap Heparine HP GE (Healthcare Lifescience) pre-equilibrated with 10-column volume of loading buffer 2 (50 mM sodium phosphate pH 7.0, 10% glycerol, 150 mM NaCl). Column was then washed with loading buffer 2 and RT was gradient-eluted with elute buffer 2 (50 mM sodium phosphate pH 7.0, 10% glycerol, 150 mM NaCl). Fractions were collected, protein was dialyzed and stored in buffer containing 50 mM Tris HCl pH 7.0, 25 mM NaCl, 1 mM EDTA, 50% glycerol. Catalytic activities and protein concentration were determined. Enzyme-containing fractions were pooled and aliquots were stored at −80 °C.
The RT-associated RNase H activity of wt and mutated HIV RTs was measured as described, in 100 µL reaction volume containing 50 mM Tris HCl pH 7.8, 6 mM MgCl2, 1 mM dithiothreitol (DTT), 80 mM KCl, hybrid RNA/DNA (5’-[…]-3’-Fluorescein, 5’-[…]-3’-Dabcyl), and different amounts of enzymes according to a linear range of dose-response curve—20 ng of wt RT; 50 ng K103N RT; 100 ng V108A RT; 4 ng Y181C RT; 100 ng Q475A RT; 100 ng A502F RT. The reaction mixture was incubated for 1 h at 37 °C, the reaction was stopped by addition of EDTA and products were measured with a Victor 3 (Perkin) at 490/528 nm.

[2] = Cell viability in CEM cells (MTT); type: cell-based; details: human, MTT, 5 days
Protocol: Drug-mediated inhibition of virus-induced cytotoxicity was assayed in TZM-BL cells. Triplicate wells of 96-well plates containing 1 × 10^4 TZMbl cells were infected with HIV-1 IIIB strain at a multiplicity of infection of 0.1. Serial dilutions of drugs were added immediately after infection. Luciferase activity was measured as reported. Two days after infection, the culture medium was removed from each well and 100 µl of Bright Glo reagent (Promega, Luis Obispo, CA) was added to the cells for measurement of luminescence using a Victor 2 luminometer (Perkin). The 50% effective concentration (EC50) was defined as the concentration that caused a 50% reduction of luciferase activity (relative light units) compared to virus control wells. Cell viability in CEM cells was quantified 5 days after infection with the MTT-dye reduction method.

HIV-1 IIIB strain = test: Antiviral assay, HIV-1 replication in TZMbl cells (luciferase); type: cell-based; details: TZMbl cells; for EC50: Human immunodeficiency virus 1, TZM-bl, read-out: HIV-1 EC50 TZMbl Cells
Protocol: Drug-mediated inhibition of virus-induced cytotoxicity was assayed in TZM-BL cells. […] Serial dilutions of drugs were added immediately after infection. Luciferase activity was measured as reported [67]. Two days after infection, the culture medium was removed from each well and 100 µl of Bright Glo reagent (Promega, Luis Obispo, CA) was added to the cells for measurement of luminescence using a Victor 2 luminometer (Perkin). […] Cell viability in CEM cells was quantified 5 days after infection with the MTT-dye reduction method.

[3] = Cytotoxicity in TZMbl cells; type: cell-based; details: human

| SMILES | IC50 [1] [µM] | RNase H IC50 [1] | percentage in parenthesis in presence of the highest concentration of inhibitor tested (RNase H) [1] | melting point [°C] | CC50 at 5 days [2] [µM] | EC50 (HIV-1 IIIB strain; HIV-1 IIIB) [µM] | HIV-1 EC50 TZMbl Cells (HIV-1 IIIB strain; HIV-1 IIIB) | CC50 [3] [µM] | SI (selectivity index) (HIV-1 IIIB strain) |
| --- | --- | --- | --- | --- | --- | --- | --- | --- | --- |
| Cc1ccc(Cl)cc1Nc1nc(C(F)(F)F)ccc1C(N)=O [Compound 6] | > 100 | completely inactive | 87% |  |  |  |  |  |  |
| Cc1ccc(Cl)cc1Nc1nc(C(F)(F)F)ccc1C(=O)Oc1ccccc1Cl [Compound 11] | > 100 |  | 92% |  |  |  |  |  |  |
| Cc1ccc(Cl)cc1Nc1nc(C(F)(F)F)ccc1C(=O)Oc1cccc(Cl)c1 [Compound 12] | > 100 |  | 98% |  |  |  |  |  |  |
| Cc1ccc(Cl)cc1Nc1nc(C(F)(F)F)ccc1C(=O)Oc1ccc(Cl)cc1Cl [Compound 14] | > 100 | abolished the activity | 98% |  |  |  |  |  |  |
| Cc1ccc(Cl)cc1Nc1nc(C(F)(F)F)ccc1C(=O)Oc1c(Cl)cc(Cl)cc1Cl [Compound 15] | 31.8 ± 3.5 |  |  |  |  |  |  |  |  |
| Cc1ccc(Cl)cc1Nc1nc(C(F)(F)F)ccc1C(=O)Oc1ccc(O)cc1 [Compound 18, 4-Hydroxyphenyl 2-((5-chloro-2-methylphenyl)amino)-6-(trifluoromethyl)nicotinate] | 20 ± 1.3 |  |  | 184 to 186 |  |  |  |  |  |
| COc1cccc(OC(=O)c2ccc(C(F)(F)F)nc2Nc2cc(Cl)ccc2C)c1 [Compound 19] | > 100 |  | 80% |  |  |  |  |  |  |
| COc1ccc(OC(=O)c2ccc(C(F)(F)F)nc2Nc2cc(Cl)ccc2C)cc1OC [Compound 20, 3,4-Dimethoxyphenyl-2-((5-chloro-2-methylphenyl)amino)-6-(trifluoromethyl)nicotinate] | 21 ± 11 |  |  |  |  |  |  |  |  |
| COc1cc(OC(=O)c2ccc(C(F)(F)F)nc2Nc2cc(Cl)ccc2C)cc(OC)c1OC [Compound 22, 3,4,5-Trimethoxyphenyl 2-((5-chloro-2-methylphenyl)amino)-6-(trifluoromethyl)nicotinate] | 17.3 ± 1.3 |  |  | 138 to 140 |  |  |  |  |  |
| Cc1ccc(Cl)cc1Nc1nc(C(F)(F)F)ccc1C(=O)NO [Compound 25, 2-((5-Chloro-2-methylphenyl)amino)-N-hydroxy-6-(trifluoromethyl)nicotinamide] | 0.77 ± 0.06 |  |  | 154 to 155 | 35 | > 10 | inactive | 14 ± 2.8 |  |
| CCOC(=O)CNC(=O)c1ccc(C(F)(F)F)nc1Nc1cc(Cl)ccc1C [Compound 26, Ethyl 2-(2-((5-chloro-2-methylphenyl)amino)-6-(trifluoromethyl)nicotinamido)acetate] | > 100 |  | >100 (100%) | 128 to 130 |  |  |  |  |  |
| Cc1ccc(Cl)cc1Nc1nc(C(F)(F)F)ccc1C(=O)Nc1cccnc1 [Compound 27] | 25 ± 4.9 |  |  |  | 16.2 | > 5.8 |  | 5.8 ± 0.8 |  |
| CSc1ccc(NC(=O)c2ccc(C(F)(F)F)nc2Nc2cc(Cl)ccc2C)cc1 [Compound 28, 2-((5-Chloro-2-methylphenyl)amino)-N-(4-(methylthio)phenyl)-6-(trifluoromethyl)nicotinamide] | 5.9 ± 0.9 |  |  |  |  |  |  |  |  |
| Cc1cccc(NC(=O)c2ccc(C(F)(F)F)nc2Nc2cc(Cl)ccc2C)c1 [Compound 29] | 8.9 ± 0.1 |  |  |  | 6.3 | 2.5 ± 0.4 |  | 3.9 ± 0.9 | 1.6 |
| Cc1ccc(Cl)cc1Nc1nc(C(F)(F)F)ccc1C(=O)Nc1cccc(Cl)c1 [Compound 30] | 4 ± 2.2 |  |  |  | 8.4 | > 3.9 |  | 3.9 ± 0.9 |  |
| Cc1ccc(Cl)cc1Nc1nc(C(F)(F)F)ccc1C(=O)Nc1ccc(Cl)cc1Cl [Compound 31] | 8.8 ± 0.5 |  |  |  | 7.8 | > 4.7 |  | 4.7 ± 1.7 |  |
| COc1ccc(NC(=O)c2ccc(C(F)(F)F)nc2Nc2cc(Cl)ccc2C)cc1Cl [Compound 32] | > 100 |  | >100 (100%) |  |  |  |  |  |  |
| COc1cccc(NC(=O)c2ccc(C(F)(F)F)nc2Nc2cc(Cl)ccc2C)c1 [Compound 33] | > 100 | abolished the activity | 54% |  |  |  |  |  |  |
| COc1cc(NC(=O)c2ccc(C(F)(F)F)nc2Nc2cc(Cl)ccc2C)cc(OC)c1 [Compound 34] | 17.5 ± 3.9 |  |  |  | 10.4 | 2 ± 0.3 |  | 5.3 ± 0.6 | 2.6 |
| COc1ccc(NC(=O)c2ccc(C(F)(F)F)nc2Nc2cc(Cl)ccc2C)cc1OC [Compound 35] | 22.4 ± 4 |  |  |  |  |  |  |  |  |
| COc1cc(NC(=O)c2ccc(C(F)(F)F)nc2Nc2cc(Cl)ccc2C)cc(OC)c1OC [Compound 36] | 19.4 ± 1.5 |  |  |  | 10.2 | 1.8 ± 0.6 |  | 2.2 ± 0.4 | 1.2 |
| Cc1ccc(Cl)cc1Nc1nc(C(F)(F)F)ccc1C(=O)Nc1ccc(C(F)(F)F)cc1 [Compound 37] | 7.8 ± 1.2 |  |  |  | 4.3 | > 2.2 |  | 2.2 ± 0.2 |  |
| Cc1ccc(Cl)cc1Nc1nc(C(F)(F)F)ccc1C(=O)NCc1ccccc1Cl [Compound 38, N-(2-chlorobenzyl)-2-((5-chloro-2-methylphenyl)amino)-6-(trifluoromethyl)nicotinamide] | 19.4 ± 1.1 |  |  |  | 12.5 | > 5.7 |  | 5.7 ± 0.7 |  |
| Cc1ccc(Cl)cc1Nc1nc(C(F)(F)F)ccc1C(=O)NCc1ccc(Cl)cc1 [Compound 40, N-(4-chlorobenzyl)-2-((5-chloro-2-methylphenyl)amino)-6-(trifluoromethyl)nicotinamide] | 6.4 ± 0.5 |  |  | 130 to 131 | 7.75 | > 4.7 |  | 4.7 ± 0.4 |  |
| Cc1ccc(Cl)cc1Nc1nc(C(F)(F)F)ccc1C(=O)NCc1ccc(F)cc1 [Compound 41, 2-((5-Chloro-2-methylphenyl)amino)-N-(4-fluorobenzyl)-6-(trifluoromethyl)nicotinamide] | 23.3 ± 3.1 |  |  |  | 11.6 | > 6 |  | 6 ± 0.6 |  |
| Cc1ccc(Cl)cc1Nc1nc(C(F)(F)F)ccc1C(=O)NCc1ccc(C(F)(F)F)cc1 [Compound 42, 2-((5-Chloro-2-methylphenyl)amino)-6-(trifluoromethyl)-N-(4-(trifluoromethyl)benzyl)nicotinamide] | 21.9 ± 0.2 |  |  | 170 to 171 | 5 | > 3.6 |  | 3.6 ± 1.2 |  |
| COc1ccc(CNC(=O)c2ccc(C(F)(F)F)nc2Nc2cc(Cl)ccc2C)cc1 [Compound 43, 2-((5-Chloro-2-methylphenyl)amino)-N-(4-methoxybenzyl)-6-(trifluoromethyl)nicotinamide] | 30.4 ± 3.9 |  |  |  | 20 | > 10 |  | 13.2 ± 1.3 |  |
| Cc1ccc(CNC(=O)c2ccc(C(F)(F)F)nc2Nc2cc(Cl)ccc2C)cc1 [Compound 44, 2-((5-Chloro-2-methylphenyl)amino)-N-(4-methylbenzyl)-6-(trifluoromethyl)nicotinamide] | 21.3 ± 0.5 |  |  |  | 3.5 | > 1.1 |  | 1.1 |  |
| Cc1ccc(Cl)cc1Nc1nc(C(F)(F)F)ccc1C(=O)N1CCN(c2ccccc2)CC1 [Compound 48, (2-((5-Chloro-2-methylphenyl)amino)-6-(trifluoromethyl)pyridin-3-yl)(4-phenylpiperazin-1-yl)methanone] | > 100 |  | >100 (100%) | 118 to 120 |  |  |  |  |  |
